Columns and labels:
[1] = system: Neonatal human dermal fibroblasts; assay: Procollagen I production by fibroblasts (dot blot); type: cell-based; details: 50 μg; for Procollagen 1 production: densitometer reading
Procedure: This example measured production of procollagen I by fibroblasts in response to treatment with various test compounds.
Methodology for determination of (Pro) Collagen-I protein expression using Dot Blot technique:
Neonatal human dermal fibroblasts (passage 4 to 8) were purchased from Clonetics Corp. San Diego, Calif. All materials for cell culture were purchased from Life technologies, New York and used in passages 5-10. Cells were seeded at a density of approximately 7,500/well in the inner 48 wells of a 96-well plate in DMEM (Dulbecco's Modified Eagle's Medium), high glucose supplemented with 2 mM L-glutamine, 10% fetal bovine serum, and antibiotic and. antimycotic solutions. Cells were grown to confluence and washed with serum free, phenol red free DMEM and cells dosed with 200 μl actives in media. Each dosing was replicated in a total of six to twelve wells. After 24 hours, the test compound solution or the control solution was removed and cells re-dosed with 100 μl actives in media. After 24 hours incubation, remove media and store at 4° C. with protease inhibitor (Aprotinin 1:200) until further use. The test compound solution was then diluted in 1X Tris buffered saline (pH=8) buffer (approximately 20 μl media in 200 μl buffer).
PVDF membrane soaked in methanol and 2 filter papers in 1X TBS (pH=8). Bio-Rad dot blot apparatus was set up with filter paper on bottom, membrane on top, tighten, added 100 μl TBS per well. Vacuum dry. Vortex or mix, then load 100 μl diluted sample per well; let it sit for 15 minutes and then vacuum dry. Remove membrane from the apparatus, cut off excess, and notch bottom right comer for orientation. Place membrane in blocking buffer (5% milk powder in 1X TBS-Tween) for 1 hour at room temperature with shaking. […] Remove membrane, do a 10 minute wash three to five times in TBS/0.1% Tween. Incubate for 1 hour at RT or O/N at 4° C. in 5 ml 1:1000 anti-rat conjugated alkaline phosphatase (AP) secondary antibody in 1-% milk in TBS-T in a sealed bag with shaking. Wash membrane for 15 minutes five to eight times with TBS-T, and final rinse with 1X PBS. The membrane was developed using Chemiluminiscent substrate (Boehringer Mannheim, Ind.) and results were analysed using a laser densitometer (Bio-Rad instrument). Fold increase was calculated as a ratio of densitometer reading for cells treated with a test compound over control.

ZR75 cells = assay: Assay for estrogen like activity: [methyl-3H] thymidine incorporation in ZR75 cells; type: cell-based, human; details: 0.27 × 10^−6% (10 nM)
Excerpt: The ZR75 cell line is a ductal breast carcinoma cell line, originally isolated from malignant mammary epithelium of a person (10). The chromosome number is triploid and the trypsin-Giemsa banding patterns indicate a unique karyotype distinct from HeLa cells. While containing receptors for estrogen, insulin, progesterone and other hormones, ZR75 cells only respond through an increase in proliferation to estrogen and insulin. The cell line contains high affinity estrogen-specific receptors. Therefore, this cell line is used for testing estrogen-like activity.
The cells are split 1:2 once every week and seeded in 24 well plates at one hundred thousand cells per milliliter per well for the assay.
After growing for twenty-four hours, the media was removed, the cells were washed with PBS and one ml of RPMI 1640 without serum was readded. Different dilutions of the red yeast rice extract were then dosed directly into each well. After another twenty-four hours, one microCurie of [methyl-3H] thymidine was added to the media in each well. The media was removed after twenty-four hours to begin the thymidine uptake assay. […] The samples were transferred to scintillation vials and after adding five milliliters of counting fluid (scintiverse), the vials were counted for five minutes each on a setting for tritium. […] Data was calculated as % of control to normalize for experiment-to-experiment variation.

human sebocytes = assay: Sebum secretion by sebocytes (14C-acetate incorporation); type: cell-based; details: 0.001%
Procedure: This example investigated the effect of red yeast rice on sebum secretion by sebocytes. Secondary cultures of human sebocytes obtained from an adult […] were grown in 48-well tissue culture plates (Costar Corp.; Cambridge, Mass.) until confluent. Sebocyte growth medium consisted of Clonetics Keratinocyte Basal Medium (KBM) supplemented with 14 μg/ml bovine pituitary extract, 0.4 μg/ml hydrocortisone, 5 μg/ml insulin, 10 ng/ml epidermal growth factor, 1.2×10−10 M cholera toxin, 100 units/ml penicillin, and 100 μg/ml streptomycin. All cultures were incubated at 37° C. in the presence of 7.5% CO2. Medium was changed three times per week. On the day of experimentation, the growth medium was removed and the sebocytes washed three times with sterile Dulbecco's Modified Eagle Medium (DMEM; phenol red free). Fresh DMEM was added to each sample (triplicates in Table 4 and duplicated in Table 5) with 5 microliter of test agent solubilized in ethanol. Controls consisted of addition of ethanol alone. Each plate was returned to the incubator for 20 hours followed by the addition of 14C-acetate buffer (5 mM final concentration, 56 mCi/mmol specific activity). […] Radioactive label remaining in the sebocytes was harvested and counted using a Beckman scintillation counter. […]

[2] = system: Cellular Retinoic Acid Binding Protein 2 (CRABP-2) in human adult fibroblasts; assay: CRABP-2 production by fibroblasts (Western blot); type: cell-based; details: 10e-6M retinoid alone, 48 hours
Procedure: This example investigated the effect of various tested compounds on CRABP-2 production by fibroblasts.
Human adult fibroblasts obtained from su n-protected inner arm of 25-30 year […] volunteer were used in this. Cells were grown in 1:1 DMEM/Hams F12 media containing 10% FBS, maintained at 37° C. in a 5% CO2 atmosphere under normal atmospheric oxygen tension. Third passage adult fibroblasts were grown in DMEM media with 10% FBS in 12-well plates at a seeding density of 2500 cells/ml/well. The cells at 80% confluence were rinsed in serum free and phenol red free (PRF) DMEM media twice. Pre-treatment with test compound for 4 hours was conducted and then dosed with retinoids and was incubated for 48 hours.
After the incubation, the wells were was ed twice with 1X PBS and the cell monolayer was harvested in 100 μl cell lysis buffer (contains 1X PBS, 1% TritonX, 0.5% sodium deoxycholate, 0.1% SDS containing p tease inhibitor (10 mg/ml PMSF in isopropanol, 10 μl/ml). The suspension was spun at 14000 rpm for 10 minutes, the supernatant collected and an aliquot of this supematant was used for protein quantification. Protein concentration was determined using Pierce protein kit. The remainder of 100 μl supernatant (cell lysate) was denatured in a mixture of 40 μl sample buffer (NOVEX) and 0.5% Beta mercaptoethanol (IBME) and by boiling the sample for 5 minutes. Equal amount of protein was then loaded onto 16% Tris-glycine gels for protein analysis by SDS page and Western Immuno-blotting for CRABP-2 protein expression.
The gels were run and transferred to nitrocellulose blots and Western Blotting was carried out using monoclonal antibodies to CRABP-2 according to standard procedures. The CRABP-2 protein band was visualized in the Western Blots using the chemiluminescence system obtained from Santa Cruz Biotechnology (SantaCruz, Calif.). The bands in the film were quantitated by densitometric scanning, the-data from triplicate samples were calculated as % of control and expressed in the following tables as % increase over control (with control as 100%) +/−SD of triplicates.

Structure (SMILES)	Procollagen 1 production % of Control [1]	Procollagen 1 production [1]	CRABP-2 % of Control [2]	CRABP-2 OD +/− SD [2]	also measured
CCCCCCCCCCCCCCCC(=O)OC[C@H](O)[C@H]1OC(=O)C(O)=C1O [Ascorbyl Palmitate, ascorbyl palmitate]	103 +/− 48%	0.775 +/− 0.36	–	–	–
C[C@]12CC[C@@H]3c4ccc(O)cc4CC[C@H]3[C@@H]1CC[C@@H]2O [Estradol, estradiol]	–	–	–	–	cpm +/− SD (thymidine incorporation) (ZR75 cells): 263982 +/− 711 cpm; activity at 0.01 µM (ZR75 cells; Homo sapiens, ZR75, read-out: thymidine incorporation % of control): 224%
O=S1(=O)OC(c2ccc(O)cc2)(c2ccc(O)cc2)c2ccccc21 [Phenol Red]	–	–	–	–	% Reduction (sebum, 14C-acetate label) (human sebocytes; first Table 4 (triplicates)): 83.4%; % Reduction (sebum, 14C-acetate label) (human sebocytes; second table, printed as Table 4 (Table 5, duplicates)): 83.4%
CC1=C(/C=C/C(C)=C/C=C/C(C)=C/CO)C(C)(C)CCC1 [Retinol]	–	–	153 +/− 5%	1.91 +/− 0.06 OD	–
CC(=O)OC/C=C(C)/C=C/C=C(C)/C=C/C1=C(C)CCCC1(C)C [Retinyl Acetate]	–	–	398 +/− 157%	3.86 +/− 0.28 OD	–
CCCCC/C=C\C/C=C\CCCCCCCC(=O)OC/C=C(C)/C=C/C=C(C)/C=C/C1=C(C)CCCC1(C)C [Retinyl linoleate]	–	–	156 +/− 13%	1.96 +/− 0.16 OD	–
CCCCCCCCCCCCCCCC(=O)OC/C=C(C)/C=C/C=C(C)/C=C/C1=C(C)CCCC1(C)C [Retinyl palmitate]	–	–	178 +/− 33%	2.00 +/− 0.04 OD	–
O=C1O[C@H]([C@@H](O)CO)C([O-])=C1OP(=O)([O-])[O-].[Na+].[Na+].[Na+] [Sodium ascorbyl phosphate, sodium ascorbyl phosphate]	116 +/− 27%	0.871 +/− 0.2	–	–	–
O=C1O[C@H]([C@@H](O)CO)C(O)=C1O [Vitamin C]	175 +/− 37%	1.311 +/− 0.28	–	–	–

Source: patent US6395281B1, “Cosmetic skin conditioning compositions containing red yeast rice extract” (Unilever Home & Personal Care USA, a division of Conopco, …, priority 1999, dated 2002)
